# Measured values taken from US10837957B2, “In vitro model for pathological or physiologic conditions” (HemoShear, LLC, priority 2012, dated 2020).
# Assays:
# cytochrome p450 1A/1B = assay: Cytochrome p450 activity assay (P450-GLO) in hepatocytes, induction
# Method: (§3) Porous membrane segments roughly 2 cm^2 in area were excised and transferred to standard 24-well plates alongside corresponding static cultures. The cells were incubated with 500 μl of hepatocyte media containing substrates from commercially available P450-GLO kits (kits for luminescent cytochrome p450 assays) at the manufacturer-recommended concentrations. After 4 hours, the media was transferred to 96-well plates and assayed for luminescent metabolites to reflect cytochrome p450 activity as per the manufacturer protocol.
# (§4) After 48 hours, on day 7, segments of the porous membrane from the devices containing hepatocytes cultured under controlled hemodynamics that were roughly 2.0 cm^2 in area were excised and transferred to standard 24-well plates and treated with substrates for the Cyp p450 enzymes in parallel to corresponding static cultures treated with the different agents. Cytochrome p450 assays were done on day 7 using commercially available P450-GLO kits. After 4 hours the media was transferred to 96-well plates and assayed for luminescent metabolites to reflect cytochrome p450 activity.
# primary rat hepatocytes = assay: Toxicity to hepatocytes cultured under controlled flow; settings: 50 μM dexamethasone
# Method: Cytochrome p450 assays were done on day 7 using commercially available P450-GLO kits. After 4 hours the media was transferred to 96-well plates and assayed for luminescent metabolites to reflect cytochrome p450 activity.
# cytochrome p450 3A = assay: Cytochrome p450 activity assay (P450-GLO) in hepatocytes, induction; assay type: cell-based, rat; settings: controlled hemodynamics 0.6 dynes/cm^2, dexamethasone 02.5 μM, 48 hours, day 7; DMSO 11.64
# Method: as §3, §4
# [1] = system: endothelial cells and smooth muscle cells; assay: Aldosterone in hemodynamic environment: gene array analysis; assay type: cell-based; settings: aldosterone 1 mM vs vehicle; healthy and atheroprone
# Method: Aldosterone at a concentration of 1 mM or a vehicle control (VEH) was added to the upper volume and RNA was collected for gene array analysis.
# [2] = system: endothelial cells and smooth muscle cells; assay: ANG2 in hemodynamic environment: gene array analysis; assay type: cell-based; settings: ANG2 10 nM (10.46 ng/ml) vs DMSO vehicle; healthy and atheroprone
# Method: ANG2 at a concentration of 10 nM (10.46 ng/ml) or a DMSO vehicle control (VEH) was added to the upper volume and RNA was collected for gene array analysis.
# [3] = system: endothelial cell/smooth muscle cell co-cultures; assay: HDL in hemodynamic environment; assay type: cell-based; settings: HDL 45 μg/ml or 90 μg/ml, hemodynamic shear stress
# Method: An additional component of plasma cholesterol distinct from nLDL or oxLDL is HDL. […] HDL was then added to the upper volume at a concentration of 45-1,000 μg/ml. This broad range reflects the broad range of HDL concentrations that can exist within human patients. HDL concentrations in individuals at risk for vascular disease are generally less than about 300 μg/ml, while HDL concentrations in healthy individuals range from greater than about 300 μg/ml up to about 2,000 μg/ml in healthy exercising patients.
# In additional experiments, endothelial cell/smooth muscle cell co-cultures plated as described above were preconditioned for 16 hours with hemodynamic shear stress. From hours 16-24 the cells were additionally primed with 0.05 ng/ml TNFα and 50 μg/ml of oxLDL (compared to a vehicle control containing 50 μg/ml nLDL) in the upper volume. At 24 hours, 45 μg/ml or 90 μg/ml HDL was added to the media in the upper volume and hemodynamic shear stress was continued for the next 24 hours (hours 24-48).
# NFκB = assay: Adenovirus NFκB-luciferase reporter in ECs and SMCs; assay type: cell-based
# Method: (§1) Five different donor pairs were used to analyze the oxLDL (50 μg/ml) response compared to nLDL (50 μg/ml) within the atheroprone hemodynamic environment in endothelial cells and smooth muscle cells. […] Significant genes were considered using an FDR of 0.01. Gene expression results are reported as the relative expression of the gene as compared to the expression of β-2 microglobulin (B2M). Protein expression results are reported as the relative expression of the protein as compared to the expression of actin. Activity of NFκB was assessed using an adenovirus NFκB-luciferase (Ad-NFKB-luc) reporter infected in ECs and SMCs.
# [4] = system: endothelial cells and smooth muscle cells; assay: oxLDL in hemodynamic environment: gene array, gene, protein and cytokine expression in co-culture; assay type: cell-based; settings: for number of genes regulated as compared to nLDL: atheroprone, 50 μg/ml oxLDL vs 50 μg/ml nLDL
# Method: Following 16-24 hours of shear stress preconditioning with atheroprotective or atheroprone hemodynamic forces, oxLDL was added to upper volume (containing the endothelial cells) at a concentration of 10-50 μg/ml (FIG. 5). In devices not receiving oxLDL, nLDL was added to the upper volume at the same concentration and used as a vehicle control. This concentration of oxLDL is similar to plasma concentrations of oxLDL observed in patients with cardiovascular disease. Shear stress application was continued for an additional 24 hours in the presence of oxLDL.
# as §1
# endothelial cells [5] = assay: oxLDL and TNFα in hemodynamic environment: RT-PCR gene expression; assay type: cell-based; settings: atheroprone
# Method: To emulate more inflammatory stages of atherosclerosis, it is desirable to combine multiple circulating factors to better emulate the complexity found within human blood vessels. […] The media in the upper volume was then exchanged for media containing 0.05 ng/ml TNFα and 50 μg/ml of oxLDL. Media containing only 50 μg/ml of nLDL was used as a control.
# Following 24 hours of shear stress preconditioning with atheroprotective or atheroprone hemodynamic forces, 50 μg/ml of oxLDL and 0.05 ng/ml of TNFα were added to upper volume (containing the endothelial cells). This concentration of TNFα is similar to plasma concentrations of TNFα observed in patients with cardiovascular disease. In devices not receiving oxLDL, nLDL was added to the upper volume at the same concentration and used as a vehicle control. Shear stress application was continued for an additional 24 hours in the presence of TNF-a and oxLDL (see FIG. 5). Gene expression analysis was performed using RT-PCR.
# endothelial cells [6] = assay: TNFα in hemodynamic environment: inflammatory gene expression; assay type: cell-based; settings: 0.1-1 ng/ml TNFα, atheroprone hemodynamic forces; not seen at same levels in static
# Method: Following 24 hours of shear stress preconditioning with atheroprotective or atheroprone hemodynamic forces, TNFα was added to upper volume (containing the endothelial cells) at a concentration of 0.05-1 ng/ml (see FIG. 5). This concentration of TNFα is similar to plasma concentrations of TNFα observed in patients with cardiovascular disease. Shear stress application was continued for an additional 24 hours in the presence of TNFα.
# [7] = system: Tissue Factor Pathway Inhibitor (TFPI); assay: Expression of genes relevant to thrombosis in co-cultures under hemodynamic flow; assay type: cell-based, human; settings: TNFα stimulation; both endothelial and smooth muscle cells
# Source text: FIG. 2B depicts a heat map of relative gene expression in endothelial and smooth muscle cells (grown under atheroprone or atheroprotective conditions; see FIG. 2A) of several genes relevant to thrombosis. The relative changes in gene expression of Tissue Factor (F3) and Thrombomodulin (THBD) are presented below the heat map. Atheroprone hemodynamics up-regulate Tissue Factor (F3) compared to atheroprotective shear stress. […] In addition, TNFα stimulation reduces Tissue Factor Pathway Inhibitor (TFPI) in both endothelial and smooth muscle cells.
# [8] = system: Endothelial/smooth muscle cell co-cultures; assay: Coculture thrombosis assay with shear stress, Protocol A (fibrin deposition); assay type: cell-based, human
# Method: (§2) Human endothelial cells were co-cultured with or without smooth muscle cells in the presence or absence of human-derived, region-specific hemodynamics. Endothelial cells were exposed to TNFα at various concentrations and incubated in human, platelet-free plasma supplemented by ALEXA FLUOR 488 (A488, a fluorescent dye)-labeled fibrinogen. Conversion of A488-fibrinogen to A488-fibrin and deposition on the endothelium was quantified by confocal microscopy.
# Following 24 hours of shear stress application (atheroprone or atheroprotective), the media was supplemented with TNFα at a concentration of 0.05 ng/mL or 0.10 ng/mL and shear stress was continued for an additional 24 hours, as shown in FIG. 3A. Media was then removed from both the upper and lower chambers, and both the endothelial cells and smooth muscle cells are washed twice with PBS. Endothelial cells were then incubated for 15 minutes at 37° C. with PFP supplemented with 37.5 μg/mL ALEXA-488 human fibrinogen, 20 μg/mL corn trypsin inhibitor, and 10 mM calcium, and fixed and imaged as described above for monocultures.
# endothelial cells [9] = assay: Static monoculture thrombosis assay (A488-fibrin deposition by confocal microscopy); assay type: cell-based, human; settings: static conditions; for fibrin deposition, mean fluorescence intensity: 4 hours
# Method: as §2
# For static monocultures of endothelial cells, endothelial cells were plated at 100,000 cells/cm^2 on coverslips and allowed to adhere for 24 hours. After 24 hours, media was exchanged with media containing 0 ng/ml, 1 ng/ml, 10 ng/ml, or 20 ng/ml TNFα. Cells were incubated for 4 hours at 37° C. Following incubation, media was removed and cells were washed twice with PBS. Cells were then incubated an additional 15 minutes at 37° C. with Human Platelet Free Plasma (PFP) supplemented with 37.5 μg/mL ALEXA-488 human fibrinogen, 20 μg/mL corn trypsin inhibitor, and 10 mM calcium. This protocol is depicted in FIG. 1A. After 15 minutes, the cells were fixed with 4% paraformaldehyde (PFA) and stained with 0.5 nM SYT083 (a fluorescent nucleic acid stain) in 10 mM Tris, 1 mM EDTA buffer for 45 minutes. Coverslips were mounted onto coverglass using FLUOROMOUNT-G (a mounting agent) and imaged.
# [10] = atheroprone hemodynamic environment
molecule,measurement,setting,value
"Cc1ccc2cc3c(ccc4ccccc43)c3c2c1CC3 [3-MC, 3-Methyl Cholanthrene]",fold lower levels giving induction responses under controlled hemodynamics,"cytochrome p450 1A/1B; compared to static (1 μM static, 0.1 μM controlled hemodynamics)",10 fold
same,1A/1B response to inducer (cytochrome p450 activity normalized to ATP),"cytochrome p450 1A/1B; controlled hemodynamics 0.6 dynes/cm^2, 3-MC 0.1 μM, 48 hours, day 7, DMSO 4.87",133.06
"C[C@@H]1C[C@H]2[C@@H]3CCC4=CC(=O)C=C[C@]4(C)[C@@]3(F)[C@@H](O)C[C@]2(C)[C@@]1(O)C(=O)CO [Dexamethasone, dexamethasone]",toxicity,primary rat hepatocytes,toxic
same,3A response to inducer (cytochrome p450 activity normalized to ATP),cytochrome p450 3A,57.53
"C[C@]12CCC(=O)C=C1CC[C@@H]1[C@@H]2[C@@H](O)C[C@]2(C=O)[C@@H](C(=O)CO)CC[C@@H]12 [aldosterone, Aldosterone]",inflammatory genes (gene array),[1],upregulated
"Angiotensin II (DRVYIHPF; Angiotensin-2; UniProt P01019 25-32, looked up) [ANG2]",inflammatory genes (gene array),[2],upregulated
high-density lipoprotein [HDL],activation of pro-inflammatory genes and proteins,[3],blocking activation
same,atheroprotective genes,[3],activates
oxidized low-density lipoprotein [oxLDL],NFκB activity (luciferase reporter),"NFκB; endothelial cells, atheroprone hemodynamics",further heightened
same,NFκB signaling (luciferase reporter),"NFκB; smooth muscle cells, oxLDL added to upper volume only",elevated NFKB signaling
same,atheroprotective signaling (eNOS and KLF2) gene expression,[4]; atheroprone conditions,reduced atheroprotective signaling
same,HO-1 and ATF3 gene expression,"[4]; atheroprone conditions compared to traditional static, oxLDL 10-50 μg/ml vs nLDL",activates these genes at much higher levels
same,inflammatory genes IL8 and E-Selectin (SELE) expression,"[4]; atheroprone conditions, not regulated in static cultures",activate
same,VCAM-1 protein expression,[4]; [10],elevated
same,phosphorylation of eNOS,[4]; [10],reduced phosphorylation
same,"secreted cytokines IL6, IL8 and MCP-1",[4]; [10],increased levels
same,number of genes regulated as compared to nLDL,"[4]; endothelial cells, 5 donors",688 genes
same,number of genes regulated as compared to nLDL,"[4]; smooth muscle cells, 4 donors",304 genes
same,eNOS gene expression (NOS3),endothelial cells [5]; 50 μg/ml oxLDL,reduced
same,E-Selectin (SELE) gene expression,endothelial cells [5]; 50 μg/ml oxLDL vs nLDL control,higher levels
tumor necrosis factor-α [TNFα],"inflammatory response (E-Selectin, ICAM, VCAM, IL8 expression)",endothelial cells [6],induced an inflammatory response
same,Tissue Factor Pathway Inhibitor (TFPI) expression,[7],reduces
same,"fibrin deposition, mean fluorescence intensity","[8]; 0.05 ng/ml TNFα, 24 hours, atheroprone hemodynamics from internal carotid sinus, Protocol A",1.9e7
same,fold lower levels of TNFα inducing fibrin deposition as compared to static cultures,[8]; atheroprone hemodynamic priming,100- to 200 fold
same,"fibrin deposition, mean fluorescence intensity",endothelial cells [9]; 1 ng/ml TNFα,1.17e5
same,"fibrin deposition, mean fluorescence intensity",endothelial cells [9]; 10 ng/ml TNFα,2.69e7
same,"fibrin deposition, mean fluorescence intensity",endothelial cells [9]; 20 ng/ml TNFα,3.61e7
same,TNFα concentration needed for activation relative to physiological levels,endothelial cells [9],approximately 200 fold
